Laboratory results taken from patent publication US20180338937A1, “PHARMACEUTICAL PREPARATIONS” (Analyticon Discovery GmbH, priority 2015, published 2018).

Legend:
[1] = Sensory tasting of a solution of an ibuprofen suspension (Asda), sip and spit; format: in vivo, human; settings: Ibuprofen suspension (orange taste, no sweeteners) in water, ibuprofen 5 mg/ml, 25 μM dehydroabietic acid, 0.5% ethanol, vs comparison sample
Description: Taste Modulation of Ibuprofen in Suspension (Asda) The sensory evaluation of the samples was performed by a team of five experienced assessors. Details may be taken from the following Table 5: [table]

[2] = Sensory tasting of a solution of a Nurofen ® suspension, sip and spit; format: in vivo, human; settings: Nurofen ® suspension dissolved in water, ibuprofen 5 mg/ml, 25 μM dehydroabietic acid, 0.5% ethanol, vs comparison sample
Description: Taste Modulation of Ibuprofen in Suspension (Nurofen®) The sensory evaluation of the samples was performed by a team of five experienced assessors.

[3] = tested on: cyclooxygenase; settings: U.S. Pat. No. 6,365,634 B1 (RUSSEL); cited from earlier work
[4] = Sensory tasting of a maltitol/ibuprofen solution, sip and spit; format: in vivo, human; settings: Ibuprofen/maltitol syrup in water, 25 μM dehydroabietic acid, 0.5% ethanol, vs comparison sample
[5] = Sepulveda et al., Pharmacol. Res. 52(5), 429-437 (2005); cited from earlier work
[6] = Sensory tasting of a Calpol ® solution, sip and spit, five assessors; format: in vivo, human; settings: Calpol ® suspension in water, paracetamol 12.5 mg/ml, 25 μM dehydroabietic acid, 0.5% ethanol
Description: Taste Modulation of Paracetamol in a Commercially Available Formulation The sensory evaluation of the samples was performed by a team of five experienced assessors. Details may be taken from the following Table 1: [table]

[7] = Sensory tasting of a maltitol/paracetamol solution, sip and spit; format: in vivo, human; settings: Paracetamol/maltitol syrup in water, paracetamol 12.5 mg/ml, 25 μM dehydroabietic acid, 0.5% ethanol, vs comparison sample
Description: Taste Modulation of Paracetamol in a Maltitol Formulation The sensory evaluation of the samples was performed by a team of five experienced assessors. Details may be taken from the following Table 2: [table]

[8] = Sensory tasting of a Nurofen ® tablet solution, sip and spit; format: in vivo, human; settings: Nurofen ® tablets dissolved in water, ibuprofen 5 mg/ml, 25 μM dehydroabietic acid, 0.5% ethanol, vs comparison sample
Description: Taste Modulation of Ibuprofen in the Form of Tablets with Lysine (Nurofen®) The sensory evaluation of the samples was performed by a team of five experienced assessors.

[9] = cited from earlier work

## CC(C)c1ccc2c(c1)CC[C@H]1[C@](C)(C(=O)O)CCC[C@]21C [dehydroabietic acid]
[1]
  Evaluation of the sample: bitterness: less bitter
  Evaluation of the sample: orange aroma: intensification of the orange aroma
  Evaluation of the sample: overall taste: more pleasant taste
  Evaluation of the sample: sweetness: more sweet
[2]
  Evaluation of the sample: typical natural taste of ibuprofen: Masking of the typical natural taste
[3]
  inhibition of the cyclooxygenase: inhibit the cyclooxygenase
[4]; 5 mg/ml
  Evaluation of the sample: aftertaste: less unpleasant aftertaste
  Evaluation of the sample: burning sensation on the tongue/in the throat: alleviation of the burning sensation
  Evaluation of the sample: mouth dryness: reduced mouth dryness
  Evaluation of the sample: sweetness: slightly sweet
[4]; ibuprofen 5 mg/ml
  Evaluation of the sample: bitterness: less bitter
[5]
  gastroprotective properties: has gastroprotective properties
[6]; vs comparison sample
  Evaluation of the sample: metallic taste: metallic taste reduced
[6]; vs comparison sample without dehydroabietic acid
  Evaluation of the sample: bitterness: very significantly less bitter
[7]
  Evaluation of the sample: aftertaste: pleasant aftertaste
  Evaluation of the sample: bitterness: Bitterness reduced and delayed
  Evaluation of the sample: taste at the beginning: better taste at the beginning and more
  Evaluation of the sample: unpleasant/metallic taste: no long-lasting unpleasant/metallic taste
[8]
  Evaluation of the sample: bitterness: reduced bitterness
  Evaluation of the sample: delayed burning sensation in the throat: no change to the delayed burning

## C=C1C[C@@]23CC[C@H]4[C@@](C)(CCC[C@@]4(C)C(=O)O[C@@H]4O[C@H](CO)[C@@H](O)[C@H](O)[C@H]4O)[C@@H]2CC[C@]1(O[C@@H]1O[C@H](CO)[C@@H](O)[C@H](O)[C@H]1O[C@@H]1O[C@H](CO)[C@@H](O)[C@H](O)[C@H]1O)C3 [stevioside]
[9]
  daily uptake considered harmless: up to 4 mg stevioside per kilogramme of bodyweight
